Patent publication US20240228493A1, “LRRK2 INHIBITORS AND USES THEREOF” (NEURON23, ICN., priority 2022, published 2024)

Experiments:
[1] = tested on: Caco-2 cells; assay: Caco-2 bidirectional permeability; format: in vitro ADME; details: for Caco-2 ER: Efflux Ratio=Papp(BA)/Papp(AB); for Caco-2 A2B (10^−6 cm/s): apical to basolateral; for Caco-2 A2B (10^−6 cm/s) / Caco-2 B2A (10^−6 cm/s): 2 hours, pH 7.4; for Caco-2 B2A (10^−6 cm/s): basolateral to apical
Method in brief: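 Caco-2 monolayers were grown 21–28 days on PET inserts and run in duplicate in HBSS with 10 mM HEPES, pH 7.4. Test compound was dosed bidirectionally at […] for 2 h at 37 °C; quantification was by LC-MS/MS. Papp and efflux ratio (B-A/A-B) were calculated, with lucifer yellow monolayer integrity checks.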

[2] = Human liver microsomal clearance (hLM Cl); format: in vitro ADME; details: values marked *: human liver microsomal Clearance
[3] = molecular target: T1, wt human LRRK2, catalytic site (Homo sapiens, UniProt Q5S007); assay: TR-FRET LanthaScreen Tb Kinase Activity Assay, LRRK2 inhibition; format: biochemical; details: 2 nM wt human LRRK2, 400 nM peptide, 38 μM ATP
T1 construct: wt human LRRK2, catalytic site, catalytic site (ThermoFisher/USA); purchased ThermoFisher
T1 sequence (Q5S007 1879-2138 limits assumed): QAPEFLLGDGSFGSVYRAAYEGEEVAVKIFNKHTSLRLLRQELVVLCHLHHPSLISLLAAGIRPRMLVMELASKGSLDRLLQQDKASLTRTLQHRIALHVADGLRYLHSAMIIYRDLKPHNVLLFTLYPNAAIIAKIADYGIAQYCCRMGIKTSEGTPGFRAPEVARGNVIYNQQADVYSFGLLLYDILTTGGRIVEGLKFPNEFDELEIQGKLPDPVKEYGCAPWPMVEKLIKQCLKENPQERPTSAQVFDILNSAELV
Method in brief: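 Fluorescein-ERM (LRRKtide) peptide (400 nM) phosphorylated by 2 nM wt human LRRK2 catalytic site with 38 μM ATP in 1× Kinase Buffer A, 120 min at room temperature after 15 min compound–kinase preincubation. EDTA plus Tb-anti-pLRRKtide antibody added, read after 60 min; inhibition from TR-FRET emission ratios.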

[4] = tested on: human hepatocyte; assay: Human hepatocyte stability, predicted hepatic clearance (h-Hept CL predict); format: in vitro ADME; details: human hepatocytes, 0.5×10^6 cells/mL, 1 μM, values without asterisk
Method in brief: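 Cryopreserved human hepatocytes, 0.5×10^6 viable cells/mL in William's E/GlutaMAX, incubated with compound at 1 μM final, duplicates. Sampling at 0-120 min, LC/MS/MS parent loss gives t1/2, converted to CLint and scaled to predicted hepatic clearance (well-stirred model, fub assumed 1).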

Structure (SMILES) | Caco-2 ER [1] | Caco-2 A2B (10^−6 cm/s) [1] | Caco-2 B2A (10^−6 cm/s) [1] | hLM Cl (mL/min/kg) [2] | IC50 [3] [nM] | hHep Cl (mL/min/kg) [4]
Cc1n[nH]c2c1N=C(c1c(F)cccc1F)Nc1cnc(N3CCC[C@@](C)(C#N)C3)cc1-2 (single isomer, unassigned) [Example 12] | L (L (Likely)”: ER≥2.5) | M (M (Moderate permeability)”: 1≤A2B (B2A)≤5) | H (H (High permeability)”: A2B (B2A)>5) | L* (L (Low Cl)”: Hep Cl (mL/min/kg)<6.3) | < 1 | –
Fc1cccc(F)c1C1=Nc2cn[nH]c2-c2cc(N3CC[C@@H](C(F)F)C3)ncc2N1 (single isomer, unassigned) [Example 34] | L (L (Likely)”: ER≥2.5) | M (M (Moderate permeability)”: 1≤A2B (B2A)≤5) | H (H (High permeability)”: A2B (B2A)>5) | I* (I (Intermediate Cl)”: 6.3≤Hep Cl (mL/min/kg)≤14.7) | < 1 | –
Cc1n[nH]c2c1N=C(c1c(F)cccc1F)Nc1cnc(N3CCC(C)(C#N)CC3)cc1-2 [Example 17, 1-[8-(2,6-difluorophenyl)-5-methyl-3,4,7,9,12-pentazatricyclo[8.4.0.02,6]tetradeca-1(10),2(6),4,7,11,13-hexaen-13-y1]-4-methyl-piperidine-4-carbonitrile] | L (L (Likely)”: ER≥2.5) | H (H (High permeability)”: A2B (B2A)>5) | H (H (High permeability)”: A2B (B2A)>5) | I* (I (Intermediate Cl)”: 6.3≤Hep Cl (mL/min/kg)≤14.7) | 1 to 100 | –
Cc1n[nH]c2c1N=C(c1c(F)cccc1F)Nc1c-2cc(N2CCN(CCCF)CC2)nc1C [Example 32, 8-(2,6-difluorophenyl)-13-[4-(3-fluoropropyl)piperazin-1-y1]-5,11-dimethyl-3,4,7,9,12-pentazatricyclo[8.4.0.02,6]tetradeca-1(10),2(6),4,7,11,13-hexaene] | L (L (Likely)”: ER≥2.5) | M (M (Moderate permeability)”: 1≤A2B (B2A)≤5) | H (H (High permeability)”: A2B (B2A)>5) | L* (L (Low Cl)”: Hep Cl (mL/min/kg)<6.3) | < 1 | –
Cc1n[nH]c2c1N=C(c1c(F)cccc1F)Nc1c-2cc(N2CCOC3(COC3)C2)nc1C [Example 38, 8-(5-(2,6-difluorophenyl)-3,7-dimethyl-1,6-dihydropyrazolo[4,3-d]pyrido[4,3-f][1,3]diazepin-9-yl)-2,5-dioxa-8-azaspiro[3.5]nonane] | L (L (Likely)”: ER≥2.5) | M (M (Moderate permeability)”: 1≤A2B (B2A)≤5) | H (H (High permeability)”: A2B (B2A)>5) | L* (L (Low Cl)”: Hep Cl (mL/min/kg)<6.3) | < 1 | –
Cc1n[nH]c2c1N=C(c1c(F)cccc1F)Nc1cnc(N3CCC4(CC3)COC4)cc1-2 [Example 42, 7-(5-(2,6-difluorophenyl)-3-methyl-1,6-dihydropyrazolo[4,3-d]pyrido[4,3-f][1,3]diazepin-9-yl)-2-oxa-7-azaspiro[3.5]nonane] | L (L (Likely)”: ER≥2.5) | M (M (Moderate permeability)”: 1≤A2B (B2A)≤5) | H (H (High permeability)”: A2B (B2A)>5) | L* (L (Low Cl)”: Hep Cl (mL/min/kg)<6.3) | 1 to 100 | –
Cc1nc(N2CC3(COC3)C2)cc2c1NC(c1c(F)cccc1F)=Nc1cn[nH]c1-2 [Example 43, 6-(5-(2,6-difluorophenyl)-7-methyl-1,6-dihydropyrazolo[4,3-d]pyrido[4,3-f][1,3]diazepin-9-y1)-2-oxa-6-azaspiro[3.3]heptane] | L (L (Likely)”: ER≥2.5) | M (M (Moderate permeability)”: 1≤A2B (B2A)≤5) | H (H (High permeability)”: A2B (B2A)>5) | L* (L (Low Cl)”: Hep Cl (mL/min/kg)<6.3) | 1 to 100 | –
Cc1n[nH]c2c1N=C(c1c(F)cccc1F)Nc1c-2cc(N2CCO[C@H]([C@@H](C)O)C2)nc1C [Example 45, (R)-1-((S)-4-(5-(2,6-difluorophenyl)-3,7-dimethyl-1,6-dihydropyrazolo[4,3-d]pyrido[4,3-f][1,3]diazepin-9-yl)morpholin-2-yl)ethan-1-ol] | L (L (Likely)”: ER≥2.5) | L (L (Low permeability)”: A2B (B2A)<1) | H (H (High permeability)”: A2B (B2A)>5) | L* (L (Low Cl)”: Hep Cl (mL/min/kg)<6.3) | 1 to 100 | –
Cc1n[nH]c2c1N=C(c1c(F)cccc1F)Nc1c-2cc(N2CCS(=O)(=O)CC2)nc1C [Example 46, 4-(5-(2,6-difluorophenyl)-3,7-dimethyl-1,6-dihydropyrazolo[4,3-d]pyrido[4,3-f][1,3]diazepin-9-yl)thiomorpholine 1,1-dioxide] | L (L (Likely)”: ER≥2.5) | L (L (Low permeability)”: A2B (B2A)<1) | H (H (High permeability)”: A2B (B2A)>5) | L* (L (Low Cl)”: Hep Cl (mL/min/kg)<6.3) | < 1 | –
Cc1n[nH]c2c1N=C(c1c(F)cccc1F)Nc1cnc(N3CCC(C#N)CC3)cc1-2 [Example 48, 1-(5-(2,6-difluorophenyl)-3-methyl-1,6-dihydropyrazolo[4,3-d]pyrido[4,3-f][1,3]diazepin-9-yl)piperidine-4-carbonitrile] | L (L (Likely)”: ER≥2.5) | M (M (Moderate permeability)”: 1≤A2B (B2A)≤5) | H (H (High permeability)”: A2B (B2A)>5) | I* (I (Intermediate Cl)”: 6.3≤Hep Cl (mL/min/kg)≤14.7) | 1 to 100 | –
Cc1cc(F)c(C2=Nc3cn[nH]c3-c3cc(N4CCOCC4)ncc3N2)c(F)c1 [Example 51, 4-(5-(2,6-difluoro-4-methylphenyl)-1,6-dihydropyrazolo[4,3-d]pyrido[4,3-f][1,3]diazepin-9-yl)morpholine] | L (L (Likely)”: ER≥2.5) | H (H (High permeability)”: A2B (B2A)>5) | H (H (High permeability)”: A2B (B2A)>5) | – | 1 to 100 | I (I (Intermediate Cl)”: 6.3≤Hep Cl (mL/min/kg)≤14.7)
N#C[C@@H]1CCCN(c2cc3c(cn2)NC(c2c(F)cccc2F)=Nc2c(Cl)n[nH]c2-3)C1 [Example 52, (R)-1-(3-chloro-5-(2,6-difluorophenyl)-1,6-dihydropyrazolo[4,3-d]pyrido[4,3-f][1,3]diazepin-9-y1)piperidine-3-carbonitrile] | L (L (Likely)”: ER≥2.5) | M (M (Moderate permeability)”: 1≤A2B (B2A)≤5) | H (H (High permeability)”: A2B (B2A)>5) | – | < 1 | I (I (Intermediate Cl)”: 6.3≤Hep Cl (mL/min/kg)≤14.7)
Fc1cccc(F)c1C1=Nc2c(Cl)n[nH]c2-c2cc(N3CC4CCC(C3)O4)ncc2N1 [Example 53, 3-(3-chloro-5-(2,6-difluorophenyl)-1,6-dihydropyrazolo[4,3-d]pyrido[4,3-f][1,3]diazepin-9-yl)-8-oxa-3-azabicyclo[3.2.1]octane] | L (L (Likely)”: ER≥2.5) | M (M (Moderate permeability)”: 1≤A2B (B2A)≤5) | H (H (High permeability)”: A2B (B2A)>5) | – | < 1 | I (I (Intermediate Cl)”: 6.3≤Hep Cl (mL/min/kg)≤14.7)
